Data: PubChem BioAssay AID1745844 (Carcinogenic Potency Database (CPDB), 2022)
The source made the active and inactive calls. The rule behind the calls is not given here.

Tested on: rodent lifetime carcinogenesis bioassay, tumor incidence TD50
Assay: carcinogenic potency in animals, long-term in vivo studies, CPDB compilation (AID 1745844)

C=Cc1ccccc1
TD50 (mouse, strain B6C3F1, females, by gavage, site: any site (literature study), lesion: several types, types named in the paper, dosed 78 weeks, study length 91 weeks): 625 mg/kg/day
TD50 (mouse, strain B6C3F1, females, by gavage, site: liver, lesion: hepatocellular adenoma + hepatocellular carcinoma + neoplastic nodule, dosed 78 weeks, study length 91 weeks): 905 mg/kg/day
TD50 (mouse, strain B6C3F1, females, by gavage, site: liver, lesion: hepatocellular adenoma, dosed 78 weeks, study length 91 weeks): 905 mg/kg/day (inactive)
TD50 (mouse, strain B6C3F1, females, by gavage, site: lung, lesion: alveolar/bronchiolar adenoma + alveolar/bronchiolar carcinoma, dosed 78 weeks, study length 91 weeks): 1380 mg/kg/day
TD50 (mouse, strain B6C3F1, males, by gavage, site: any site (literature study), lesion: several types, types named in the paper, dosed 78 weeks, study length 91 weeks): 659 mg/kg/day
TD50 (mouse, strain B6C3F1, males, by gavage, site: liver, lesion: hepatocellular adenoma + hepatocellular carcinoma + neoplastic nodule, dosed 78 weeks, study length 91 weeks): 895 mg/kg/day
TD50 (mouse, strain B6C3F1, males, by gavage, site: lung, lesion: alveolar/bronchiolar adenoma + alveolar/bronchiolar carcinoma, dosed 78 weeks, study length 91 weeks): 360 mg/kg/day
TD50 (mouse, strain Charles River CD1, females, inhaled, site: any site (literature study), lesion: several types, types named in the paper, dosed 98 weeks, study length 98 weeks): 400 mg/kg/day
TD50 (mouse, strain Charles River CD1, females, inhaled, site: liver, lesion: several types, types named in the paper, dosed 98 weeks, study length 98 weeks): 13600 mg/kg/day
TD50 (mouse, strain Charles River CD1, females, inhaled, site: lung, lesion: alveolar/bronchiolar adenoma, dosed 98 weeks, study length 98 weeks): 331 mg/kg/day
TD50 (mouse, strain Charles River CD1, females, inhaled, site: lung, lesion: alveolar/bronchiolar carcinoma, dosed 98 weeks, study length 98 weeks): 1300 mg/kg/day
TD50 (mouse, strain Charles River CD1, males, inhaled, site: any site (literature study), lesion: several types, types named in the paper, dosed 104 weeks, study length 105 weeks): 209 mg/kg/day
TD50 (mouse, strain Charles River CD1, males, inhaled, site: liver, lesion: hepatocellular carcinoma, dosed 104 weeks, study length 105 weeks): 2860 mg/kg/day
TD50 (mouse, strain Charles River CD1, males, inhaled, site: lung, lesion: alveolar/bronchiolar adenoma, dosed 78 weeks, study length 78 weeks): 465 mg/kg/day
TD50 (mouse, strain Charles River CD1, males, inhaled, site: lung, lesion: alveolar/bronchiolar adenoma, dosed 104 weeks, study length 105 weeks): 154 mg/kg/day
TD50 (mouse, strain Charles River CD1, males, inhaled, site: lung, lesion: alveolar/bronchiolar carcinoma, dosed 104 weeks, study length 105 weeks): 1770 mg/kg/day
TD50 (rat, strain Charles River CD (Sprague-Dawley), females, inhaled, site: liver, lesion: hepatocellular adenoma, dosed 104 weeks, study length 106 weeks): 12200 mg/kg/day (inactive)
carcinogen call (rat, strain Charles River CD (Sprague-Dawley), females, inhaled, site: liver, lesion: one or several types, types not named, dosed 52 weeks, study length 52 weeks): negative (inactive)
carcinogen call (rat, strain Charles River CD (Sprague-Dawley), males, inhaled, site: liver, lesion: one or several types, types not named, dosed 52 weeks, study length 52 weeks): negative (inactive)
TD50 (rat, strain Charles River CD (Sprague-Dawley), males, inhaled, site: liver, lesion: several types, types named in the paper, dosed 104 weeks, study length 106 weeks): 9930 mg/kg/day (inactive)
carcinogen call (rat, strain Fischer 344, females, by gavage, site: any site (literature study), lesion: several types, types named in the paper, dosed 90 weeks, study length 97 weeks): negative (inactive)
TD50 (rat, strain Fischer 344, females, by gavage, site: liver, lesion: hepatocellular adenoma + hepatocellular carcinoma + neoplastic nodule, dosed 90 weeks, study length 97 weeks): 25200 mg/kg/day
TD50 (rat, strain Fischer 344, males, by gavage, site: any site (literature study), lesion: several types, types named in the paper, dosed 90 weeks, study length 97 weeks): 3410 mg/kg/day (inactive)
TD50 (rat, strain Sprague-Dawley, females, by gavage, site: any site (literature study), lesion: several types, types named in the paper, dosed 52 weeks, study length 104 weeks): 12 mg/kg/day
TD50 (rat, strain Sprague-Dawley, females, inhaled, site: any site (literature study), lesion: malignant tumor, dosed 52 weeks, study length 104 weeks): 205 mg/kg/day
TD50 (rat, strain Sprague-Dawley, females, inhaled, site: any site (literature study), lesion: several types, types named in the paper, dosed 52 weeks, study length 104 weeks): 48.7 mg/kg/day
TD50 (rat, strain Sprague-Dawley, females, inhaled, site: mammary tissue, wider than the gland, lesion: malignant tumor, dosed 52 weeks, study length 104 weeks): 57.1 mg/kg/day
TD50 (rat, strain Sprague-Dawley, females, inhaled, site: mammary tissue, wider than the gland, lesion: several types, types named in the paper, dosed 52 weeks, study length 104 weeks): 23.3 mg/kg/day
TD50 (rat, strain Sprague-Dawley, males, by gavage, site: any site (literature study), lesion: malignant tumor, dosed 52 weeks, study length 104 weeks): 1090 mg/kg/day
TD50 (rat, strain Sprague-Dawley, males, by gavage, site: any site (literature study), lesion: several types, types named in the paper, dosed 52 weeks, study length 104 weeks): 1220 mg/kg/day
TD50 (rat, strain Sprague-Dawley, males, inhaled, site: any site (literature study), lesion: several types, types named in the paper, dosed 52 weeks, study length 104 weeks): 107 mg/kg/day

Cc1cc2c(nc1N)[nH]c1ccccc12
TD50 (mouse, strain CDF1, females, in feed, site: blood vessels, lesion: hemangioendothelial sarcoma, dosed 84 weeks, study length 84 weeks): 38.6 mg/kg/day
TD50 (mouse, strain CDF1, females, in feed, site: liver, lesion: hepatocellular adenoma, dosed 84 weeks, study length 84 weeks): 118 mg/kg/day
TD50 (mouse, strain CDF1, females, in feed, site: liver, lesion: hepatocellular carcinoma, dosed 84 weeks, study length 84 weeks): 98.9 mg/kg/day
TD50 (mouse, strain CDF1, females, in feed, site: liver, lesion: several types, types named in the paper, dosed 84 weeks, study length 84 weeks): 38.6 mg/kg/day
TD50 (mouse, strain CDF1, females, in feed, site: lung, lesion: adenoma, dosed 84 weeks, study length 84 weeks): 1840 mg/kg/day
TD50 (mouse, strain CDF1, males, in feed, site: blood vessels, lesion: hemangioendothelial sarcoma, dosed 73 weeks, study length 73 weeks): 15.6 mg/kg/day
TD50 (mouse, strain CDF1, males, in feed, site: liver, lesion: hepatocellular adenoma, dosed 73 weeks, study length 73 weeks): 90.9 mg/kg/day
TD50 (mouse, strain CDF1, males, in feed, site: liver, lesion: hepatocellular carcinoma, dosed 73 weeks, study length 73 weeks): 127 mg/kg/day
TD50 (mouse, strain CDF1, males, in feed, site: liver, lesion: several types, types named in the paper, dosed 73 weeks, study length 73 weeks): 43.5 mg/kg/day
TD50 (mouse, strain CDF1, males, in feed, site: lung, lesion: adenoma, dosed 73 weeks, study length 73 weeks): 1180 mg/kg/day
TD50 (rat, strain F344/DuCrj, males, in feed, site: liver, lesion: hepatocellular carcinoma, dosed 100 weeks, study length 100 weeks): 11.7 mg/kg/day
TD50 (rat, strain F344/DuCrj, males, in feed, site: pancreas, lesion: acinar-cell adenoma, dosed 100 weeks, study length 100 weeks): 8.7 mg/kg/day
TD50 (rat, strain F344/DuCrj, males, in feed, site: pancreatic islets, lesion: islet-cell adenoma, dosed 100 weeks, study length 100 weeks): 48.1 mg/kg/day
TD50 (rat, strain F344/DuCrj, males, in feed, site: salivary gland, lesion: fibrosarcoma, dosed 100 weeks, study length 100 weeks): 73.5 mg/kg/day
TD50 (rat, strain F344/DuCrj, males, in feed, site: subcutaneous tissue, lesion: fibroma, dosed 100 weeks, study length 100 weeks): 6.7 mg/kg/day
TD50 (rat, strain F344/DuCrj, males, in feed, site: urinary bladder, lesion: transitional-cell carcinoma, dosed 100 weeks, study length 100 weeks): 28.6 mg/kg/day

CCC[CH2][Sn]([CH2]CCC)([CH2]CCC)[O][Sn]([CH2]CCC)([CH2]CCC)[CH2]CCC
TD50 (rat, strain Wistar, females, in feed, site: adrenal medulla, lesion: pheochromocytoma, dosed 106 weeks, study length 106 weeks): 1.79 mg/kg/day
TD50 (rat, strain Wistar, females, in feed, site: pituitary gland, anterior, lesion: one or several types, types not named, dosed 106 weeks, study length 106 weeks): 3.73 mg/kg/day
TD50 (rat, strain Wistar, males, in feed, site: adrenal medulla, lesion: pheochromocytoma, dosed 106 weeks, study length 106 weeks): 1.93 mg/kg/day
TD50 (rat, strain Wistar, males, in feed, site: pituitary gland, anterior, lesion: one or several types, types not named, dosed 106 weeks, study length 106 weeks): 1.9 mg/kg/day

CCCCN(CCCC)C(=S)[S-].CCCCN(CCCC)C(=S)[S-].[Zn+2]
TD50 (mouse, strain B6AKF1, females, oral dosing, site: any site (literature study), lesion: several types, types named in the paper, dosed 76 weeks, study length 76 weeks): 2330 mg/kg/day (inactive)
carcinogen call (mouse, strain B6AKF1, females, oral dosing, site: liver, lesion: hepatoma, dosed 76 weeks, study length 76 weeks): negative (inactive)
TD50 (mouse, strain B6AKF1, females, oral dosing, site: lung, lesion: adenoma, dosed 76 weeks, study length 76 weeks): 1090 mg/kg/day (inactive)
carcinogen call (mouse, strain B6AKF1, males, oral dosing, site: any site (literature study), lesion: several types, types named in the paper, dosed 76 weeks, study length 76 weeks): negative (inactive)
carcinogen call (mouse, strain B6AKF1, males, oral dosing, site: liver, lesion: hepatoma, dosed 76 weeks, study length 76 weeks): negative (inactive)
carcinogen call (mouse, strain B6AKF1, males, oral dosing, site: lung, lesion: adenoma, dosed 76 weeks, study length 76 weeks): negative (inactive)
TD50 (mouse, strain B6C3F1, females, oral dosing, site: any site (literature study), lesion: several types, types named in the paper, dosed 76 weeks, study length 76 weeks): 731 mg/kg/day (inactive)
carcinogen call (mouse, strain B6C3F1, females, oral dosing, site: liver, lesion: hepatoma, dosed 76 weeks, study length 76 weeks): negative (inactive)
TD50 (mouse, strain B6C3F1, females, oral dosing, site: lung, lesion: adenoma, dosed 76 weeks, study length 76 weeks): 2330 mg/kg/day (inactive)
TD50 (mouse, strain B6C3F1, males, oral dosing, site: any site (literature study), lesion: several types, types named in the paper, dosed 76 weeks, study length 76 weeks): 252 mg/kg/day (inactive)
TD50 (mouse, strain B6C3F1, males, oral dosing, site: liver, lesion: hepatoma, dosed 76 weeks, study length 76 weeks): 680 mg/kg/day (inactive)
TD50 (mouse, strain B6C3F1, males, oral dosing, site: lung, lesion: adenoma, dosed 76 weeks, study length 76 weeks): 1050 mg/kg/day (inactive)
